In patent US20040258954A1, “Conjugated molecule and electroluminescent device thereof and electronic device having the electroluminescent device” (Semiconductor Energy Laboratory Co., Ltd., priority 2003, published 2004) one finds oxidation potential and solubility to chloroform data, which are given here for two compounds.

Series [1] can be described thus: Cyclic voltammetry, oxidation potential. Format: physicochemical. The settings on record: acetonitrile, tetrabutyl ammonium perchlorate, platinum electrodes. Here is the method: The cyclic voltammetry measurements were conducted by using acetonitrile as a solvent and tetrabutyl ammonium perchlorate as a supporting electrolyte. Each of a working electrode and a counter electrode was made from platinum. […] […] Therefore, in the compounds represented by the general formulas [Chem. 5] to [Chem. 8], it is preferable that the cyclic structures are formed by R^1 and R^2 and by R^3 and R^4, and this is supported by the result of this example.

The next series is described as follows: Solubility to chloroform. Format: physicochemical. As to the method:
In this embodiment, an effect of introducing a substituent other than hydrogen into R^5 and R^6 of the compounds represented by the general formulas [Chem. 5] to [Chem. 8] will be described. […] In contrast, in the case where R^5 and R^6 are trimethylsilyl groups, the solubility to chloroform at 25° C. is 15.4 wt. %. Thus, it is possible to considerably improve the solubility by introducing the substituent into R^5 and R^6.

Take `c1cc(-c2scc3c2OCCO3)ccc1-c1scc2c1OCCO2` [Chem. 9, 1,4-di-(3,4-ethylenedioxy-2-thienyl)benzene]: in series [1], the oxidation potential turned out to be 1.20 V. Also, the solubility to chloroform entry in the series “Solubility to chloroform” is “less than 1 wt. %”.
Regarding `CCCCCCOc1csc(-c2ccc(-c3scc(OCCCCCC)c3OCCCCCC)cc2)c1OCCCCCC` [Chem. 11, 1,4-bis(3,4-dihexyloxy-2-thienyl)benzene], the oxidation potential in series [1] was 1.68 V.
